Details: 101.33 kPa, Liquid, Oscillating crucible method

[Ca+2].[F-].[F-] [calcium fluoride]
Details	viscosity [mPa·s]
1703.3 K	2.932
1703.6 K	2.878
1713.5 K	2.82
1722.7 K	2.77
1732.2 K	2.735
1742.2 K	2.657
1751.6 K	2.623
1760.6 K	2.562
1761.2 K	2.586
1763.4 K	2.571
1770.5 K	2.542
1780.9 K	2.476
1790.5 K	2.432
1800.8 K	2.408
1807.3 K	2.371
1820.5 K	2.34
1832.8 K	2.265
1839.9 K	2.268
1847.7 K	2.223
1858.7 K	2.185
1868.1 K	2.149

[F-].[F-].[Sr+2] [strontium fluoride]
Details	viscosity [mPa·s]
1743.4 K	3.023
1749.8 K	2.953
1750.4 K	2.972
1762.4 K	2.915
1769 K	2.866
1780.9 K	2.804
1788.6 K	2.729
1796.9 K	2.698
1810.3 K	2.628
1817.9 K	2.584
1826.5 K	2.561
1833.2 K	2.512
1846.4 K	2.449
1852.2 K	2.401
1854.3 K	2.405
1864.6 K	2.374

[Ba+2].[F-].[F-] [barium difluoride]
Details	viscosity [mPa·s]
1620.2 K	3.56
1642.3 K	3.46
1657.3 K	3.309
1682.7 K	3.165
1697.5 K	2.995
1722.7 K	2.899
1723.2 K	2.856
1738.8 K	2.766
1763.4 K	2.665
1779.4 K	2.57
1802.5 K	2.461
1819.5 K	2.368
1842.3 K	2.3
1860.1 K	2.237
1880.4 K	2.172

[F-].[F-].[Mg+2] [magnesium difluoride]
Details	viscosity [mPa·s]
1514.7 K	2.416
1534.7 K	2.25
1554.7 K	2.257
1574.1 K	2.09
1613.7 K	2.081
1633.2 K	2.036
1653.4 K	1.98
1673.9 K	1.895
1690.6 K	1.784
1716.7 K	1.763
1731 K	1.758
1751 K	1.68
1773 K	1.632
1792.8 K	1.588
1814.2 K	1.602
1831.8 K	1.552
1853.2 K	1.448

Source: the NIST ThermoML archive (doi:10.1007/s10765-014-1828-5)
